These compounds were tested against T1, human Edg-1 receptor (Homo sapiens, UniProt P21453) (assay: GTP-γ-S assay using human Edg-1 receptors (SPA, CHO Flp-In cell membrane preparation)). Details: test compound at 10 μM; high control 10 μM S1P regarded as 100% activation; background-corrected; triplicate.
T1 construct: FLAG (N); expressed in transfected cells; membrane preparation
Assay type: biochemical
From the text: Determination of the Pharmacological Activity A) GTP-γ-S Assay Using Human Edg-1 Receptors
In order to determine the Edg-1 receptor activation by the compounds of the invention, a GTP-γ-S (guanosine 5′-[γ-thio]triphosphate) assay for G-protein coupled receptor binding based on the scintillation proximity assay principle was used, employing a cell membrane preparation from a CHO Flp-In cell line which constitutively overexpresses the human Edg-1 receptor.
The Flp-In™ expression system (Invitrogen, cat. no. K6010-01) allows the generation of stable mammalian cell lines into which the gene of interest has been integrated through homologous recombination at a specific genomic location called Flp Recombination Target (FRT) site by means of a Flp recombinase encoded by the pOG44 expression plasmid. The integration of the pcDNA5/FRT expression construct into the Flp-In host cell line genome results in the transcription of the gene of interest. The stably transfected cells become hygromycin-resistant.
One day prior to transfection, 200 000 Flp-In-CHO cells were seeded in Ham F-12 medium (Invitrogen, cat. no. 31765) supplemented with 10% fetal calf serum (FCS; Perbio Science, cat. no. SH30068.03) in a 6-well plate and incubated at 37° C./5% CO2 overnight. Using the FuGENE® 6 transfection reagent (Roche, cat. no. 11988387001), cells were cotransfected with the Flp recombinase expression plasmid pOG44 and a modified plasmid additionally containing the edg-1 gene (accession no. NM_001400) termed as pcDNA5-FRT-TO_nFLAG_DEST-EDG-1 with a 9:1 ratio. To obtain the modified pcDNA5-FRT-TO_nFLAG_DEST plasmid, the Invitrogen plasmid pcDNA5/FRT/TO (Invitrogen, cat. no. V6520-20) was adapted to the Gateway® (Invitrogen) cloning system by inserting a Gateway cassette containing attR recombination sites flanking a ccdB gene and a chloramphenicol-resistance gene (Gateway conversion system, Invitrogen, cat. no. 11828-029). In addition a FLAG tag epitope was added before the 5′ att recombination site to allow recombinant expression of N-terminally FLAG-tagged proteins.
For the transfection of one well, 1.08 μg of pOG44 and 0.12 μg of pcDNA5-FRT-TO_nFLAG_DEST-EDG-1 were mixed with 100 μl of serum-free Ham F-12 medium containing 6 μl of FuGENE® 6 transfection reagent. After 20 min of incubation, the transfection reagent/DNA complex was distributed dropwise on the cells. The cells were incubated for 24 h at 37° C. Then the cells from 3 wells each were transferred to a T75 flask (Greiner Cellstar®, cat. no. 658175) containing Ham F-12 medium supplemented with 10% of FCS but without antibiotic and were incubated another 24 h. 48 h after transfection, the medium was replaced by selection medium (Ham F-12 supplemented with 10% of FCS and 300 μg/ml of hygromycin B (Invitrogen, cat. no. 10687-010)). The medium was exchanged every 2 to 3 days until a resistant population of cells had grown. […] After 2 weeks of selection, the cells were transferred into T175 flasks (Greiner Cellstar®, cat. no. 660175) and cultivated for batch production. Cells were harvested from the culture flasks by short treatment (2 to 5 min) with Accutase (PAA, cat. no. L11-007), resuspended in selection medium (see above) and centrifuged at 200×g for 5 min. Cells were resuspended in a mixture of 90% of FCS and 10% of dimethylsulfoxide and stored frozen in liquid nitrogen.
A membrane preparation was obtained by standard methods from the afore-described CHO Flp-In cell line constitutively overexpressing the human Edg-1 receptor. Briefly, the cryopreserved cells were taken in culture and grown until confluency in T175 cell culture flasks (Becton Dickinson, cat. no. 35 5001). […]

T1 sequence (P21453 whole entry): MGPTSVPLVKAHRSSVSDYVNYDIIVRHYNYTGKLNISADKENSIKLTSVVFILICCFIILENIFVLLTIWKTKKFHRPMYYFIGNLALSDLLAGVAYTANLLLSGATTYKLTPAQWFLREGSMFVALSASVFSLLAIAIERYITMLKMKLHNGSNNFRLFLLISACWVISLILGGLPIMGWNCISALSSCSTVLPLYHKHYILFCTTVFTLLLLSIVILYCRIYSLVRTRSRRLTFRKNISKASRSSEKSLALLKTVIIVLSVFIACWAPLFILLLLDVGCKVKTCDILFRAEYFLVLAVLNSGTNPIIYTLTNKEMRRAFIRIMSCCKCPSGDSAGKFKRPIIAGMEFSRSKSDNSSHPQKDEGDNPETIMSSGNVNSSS

CCCOc1nc(NC2CCC(C)CC2)nc2oc(-c3cc(F)ccc3Cl)nc12 (stereo not drawn) [Example 148, [2-(2-chloro-5-fluoro-phenyl)-7-propoxy-oxazolo[5,4-d]pyrimidin-5-yl]-(4-methyl-cyclohexyl)-amine] was tested, and the “% Activation (Edg-1 receptor activation in percent of the activation by 10 μM S1P)” value was 58%.

Same assay, conditions: test compound at 10 μM; high control 10 μM S1P regarded as 100% activation; background-corrected; triplicate; read-out: % Activation (Edg-1 receptor activation in percent of the activation by 10 μM S1P)

First: CCCOc1nc(NC2CCCCC2)nc2oc(-c3cc(F)ccc3Cl)nc12 [Example 149, [2-(2-chloro-5-fluoro-phenyl)-7-propoxy-oxazolo[5,4-d]pyrimidin-5-yl]-cyclohexyl-amine]
Second: CCCOc1nc(N[C@H]2CCC[C@H](C)C2)nc2oc(-c3cc(F)ccc3Cl)nc12 [Example 147, [2-(2-chloro-5-fluoro-phenyl)-7-propoxy-oxazolo[5,4-d]pyrimidin-5-yl]-((1S,3S)-3-methyl-cyclohexyl)-amine]
The activation at 10 µM of the first is higher: 70% for the first, 63% for the second.

Going from CCCOc1nc(OC2CCC(C)CC2)nc2oc(-c3cc(F)ccc3Cl)nc12 (stereo not drawn) [Example 85, 2-(2-chloro-5-fluoro-phenyl)-5-(4-methyl-cyclohexyloxy)-7-propoxy-oxazolo[5,4-d]pyrimidine] to CCCOc1nc(NC2CCOCC2)nc2oc(-c3cc(F)ccc3Cl)nc12 [Example 57, [2-(2-chloro-5-fluoro-phenyl)-7-propoxy-oxazolo[5,4-d]pyrimidin-5-yl]-(tetrahydro-pyran-4-yl)-amine], the activation at 10 µM rises from 67% to 80%.

Compared with CCCOc1nc(Oc2ccc(Cl)cc2Cl)nc2oc(-c3cccc(C)c3)nc12 [Example 119, 5-(2,4-dichloro-phenoxy)-7-propoxy-2-(3-methyl-phenyl)-oxazolo[5,4-d]pyrimidine], CCCOc1nc(Oc2cc(F)ccc2Cl)nc2oc(-c3cccc(C)c3)nc12 [Example 101, 5-(2-chloro-5-fluoro-phenoxy)-7-propoxy-2-(3-methyl-phenyl)-oxazolo[5,4-d]pyrimidine] is lower in activation at 10 µM: 116% for the first, 104% for the second.

First: Cc1cc(Oc2nc(OCC3CC3)c3nc(-c4cccc(F)c4)oc3n2)n(C)n1 [Example 102, 7-cyclopropylmethoxy-5-(2,5-dimethyl-2H-pyrazol-3-yloxy)-2-(3-fluoro-phenyl)-oxazolo[5,4-d]pyrimidine]
Second: Cc1cc(Oc2nc(OCC3CC3)c3nc(-c4cc(F)ccc4Cl)oc3n2)n(C)n1 [Example 11, 2-(2-chloro-5-fluoro-phenyl)-7-cyclopropylmethoxy-5-(2,5-dimethyl-2H-pyrazol-3-yloxy)-oxazolo[5,4-d]pyrimidine]
The activation at 10 µM of the first is higher: 130% for the first, 105% for the second.

First: CCOc1nc(Oc2ccccc2F)nc2oc(-c3cc(C)c(O)c(C)c3)nc12 [Example 47, 4-[7-ethoxy-5-(2-fluoro-phenoxy)-oxazolo[5,4-d]pyrimidin-2-yl]-2,6-dimethyl-phenol]
Second: CCCOc1nc(Oc2ccccc2F)nc2oc(-c3cccc(O)c3)nc12 [Example 42, 3-[5-(2-fluoro-phenoxy)-7-propoxy-oxazolo[5,4-d]pyrimidin-2-yl]-phenol]
The activation at 10 µM of the first is lower: 119% for the first, 130% for the second.

Going from CCCOc1nc(Oc2ccccc2)nc2oc(-c3cccc(C)c3)nc12 [Example 51, 5-phenoxy-7-propoxy-2-(3-methyl-phenyl)-oxazolo[5,4-d]pyrimidine] to CCCOc1nc(Oc2ccccn2)nc2oc(-c3cccc(C)c3)nc12 [Example 76, 7-propoxy-5-(pyridin-2-yloxy)-2-(3-methyl-phenyl)-oxazolo[5,4-d]pyrimidine], the activation at 10 µM falls from 110% to 81%.

Compared with CCCOc1nc(Oc2ccccc2C#N)nc2oc(-c3cccc(C)c3)nc12 [Example 128, 2-(7-propoxy-2-(3-methyl-phenyl)-oxazolo[5,4-d]pyrimidin-5-yloxy)-benzonitrile], CCCOc1nc(Oc2ccccc2F)nc2oc(-c3cccc(F)c3)nc12 [Example 31, 5-(2-fluoro-phenoxy)-2-(3-fluoro-phenyl)-7-propoxy-oxazolo[5,4-d]pyrimidine] is lower in activation at 10 µM: 105% for the first, 80% for the second.

Going from CCCOc1nc(Sc2nc(C)cs2)nc2oc(-c3cccc(C)c3)nc12 [Example 55, 5-(4-methyl-thiazol-2-ylsulfanyl)-7-propoxy-2-(3-methyl-phenyl)-oxazolo[5,4-d]pyrimidine] to CCCOc1nc(Sc2nccs2)nc2oc(-c3cccc(C)c3)nc12 [Example 4], the activation at 10 µM rises from 81% to 93%.

Compared with Fc1ccccc1Oc1nc(OCC2CC2)c2nc(-c3ccc(Cl)c(Cl)c3)oc2n1 [Example 158, 7-cyclopropylmethoxy-2-(3,4-dichloro-phenyl)-5-(2-fluoro-phenoxy)-oxazolo[5,4-d]pyrimidine], Fc1cccc(-c2nc3c(OCC4CC4)nc(Oc4ccccc4F)nc3o2)c1 [Example 32, 7-cyclopropylmethoxy-5-(2-fluoro-phenoxy)-2-(3-fluoro-phenyl)-oxazolo[5,4-d]pyrimidine] is lower in activation at 10 µM: 69% for the first, 61% for the second.

Compared with CCCOc1nc(Oc2ccc(OC)cc2F)nc2oc(-c3cccc(C)c3)nc12 [Example 75, 5-(2-fluoro-4-methoxy-phenoxy)-7-propoxy-2-(3-methyl-phenyl)-oxazolo[5,4-d]pyrimidine], CCCOc1nc(Oc2ccc(C)c(F)c2)nc2oc(-c3cccc(C)c3)nc12 [Example 54, 5-(3-fluoro-4-methyl-phenoxy)-7-propoxy-2-(3-methyl-phenyl)-oxazolo[5,4-d]pyrimidine] is higher in activation at 10 µM: 72% for the first, 105% for the second.

Compared with CCCOc1nc(Oc2ccc(OC(F)(F)F)c(Cl)c2)nc2oc(-c3cccc(C)c3)nc12 [Example 52, 5-(3-chloro-4-trifluoromethoxy-phenoxy)-7-propoxy-2-(3-methyl-phenyl)-oxazolo[5,4-d]pyrimidine], CCCOc1nc(Oc2cc(C(F)(F)F)ccc2Cl)nc2oc(-c3cccc(C)c3)nc12 [Example 143, 5-(2-chloro-5-trifluoromethyl-phenoxy)-7-propoxy-2-(3-methyl-phenyl)-oxazolo[5,4-d]pyrimidine] is higher in activation at 10 µM: 51% for the first, 52% for the second.

Compared with CCCOc1nc(Oc2c(C)cc(C)cc2C)nc2oc(-c3cccc(C)c3)nc12 [Example 142, 7-propoxy-2-(3-methyl-phenyl)-5-(2,4,6-trimethyl-phenoxy)-oxazolo[5,4-d]pyrimidine], CCCOc1nc(Oc2cc(C)ccc2C)nc2oc(-c3cccc(C)c3)nc12 [Example 133, 5-(2,5-dimethyl-phenoxy)-7-propoxy-2-(3-methyl-phenyl)-oxazolo[5,4-d]pyrimidine] is higher in activation at 10 µM: 50% for the first, 92% for the second.

Compared with C=CCCCOc1nc(OCCC)c2nc(-c3cccc(C)c3)oc2n1 [Example 9, 5-Pent-4-enyloxy-7-propoxy-2-(3-methylphenyl)-oxazolo[5,4-d]pyrimidine], CCCOc1nc(Oc2c(C)cccc2Cl)nc2oc(-c3cccc(C)c3)nc12 [Example 91, 5-(2-chloro-6-methyl-phenoxy)-7-propoxy-2-(3-methyl-phenyl)-oxazolo[5,4-d]pyrimidine] is higher in activation at 10 µM: 87% for the first, 105% for the second.

Compared with CCCOc1nc(Oc2ccc(Cl)c(C)c2)nc2oc(-c3cccc(C)c3)nc12 [Example 140, 5-(4-chloro-3-methyl-phenoxy)-7-propoxy-2-(3-methyl-phenyl)-oxazolo[5,4-d]pyrimidine], CCCOc1nc(Oc2cncc(F)c2)nc2oc(-c3ccc(Cl)c(Cl)c3)nc12 [Example 160, 2-(3,4-dichloro-phenyl)-5-(5-fluoro-pyridin-3-yloxy)-7-propoxy-oxazolo[5,4-d]pyrimidine] is higher in activation at 10 µM: 60% for the first, 75% for the second.

In the case of CCCOc1nc(NC2CCOCC2)nc2oc(-c3cccc(C)c3)nc12 [Example 3, (7-Propoxy-2-(3-methyl-phenyl)-oxazolo[5,4-d]pyrimidin-5-yl)-(tetrahydro-pyran-4-yl)-amine], the activation at 10 µM is reported as 74%.

Source: US8785439B2, “2,5,7-substituted oxazolopyrimidine derivatives” (Sanofi, priority 2010, dated 2014)
